This note sets out measurements from patent publication US10138230B2, “Autotaxin inhibitors” (CANCER RESEARCH TECHNOLOGY LIMITED, priority 2015, dated 2018).

Counter-ions that a name gives are not always drawn.

The test deals with human recombinant ATX (Homo sapiens (Human), UniProt Q13822). Briefly: Autotaxin (ATX) activity Quanta Red assay. The format is biochemical. To be noted: 15 μM Rac-1-Palmitoyl-glycero-3-phosphocholine, 2 hours room temperature, determined in duplicate. As for the experimental part: The ATX enzyme assay (Quanta Red assay) described in accompanying Example section may be used to measure the pharmacological effects of the compounds of the present invention.
Autotaxin (ATX) Activity Quanta Red Assay
Measuring ATX activity using an enzyme coupled Quanta Red assay (Thermo Scientific—Pierce Protein Research Products, Product #15159) was determined as follows. 8 μL human recombinant ATX (final concentration 0.8 μg/mL) in 1× Assay buffer containing 50 mM Tris-HCl (pH 8.0), 5 mM CaCl2 was added to an opaque black flat-bottom 384-well plate (Corning, #3575) containing 2 μL test compound in 40% DMSO (4% final DMSO concentration). 10 μL of Quanta Red, Horseradish peroxidase (HRP), Choline Oxidase (CO), Rac-1-Palmitoyl-glycero-3-phosphocholine solution (final concentration 1:250 for Quanta Red, 0.5units/ml HRP, 0.5units/ml CO, 15 μM Rac-1-Palmitoyl-glycero-3-phosphocholine) in 1× assay buffer (as described previously) was added to each well to start the reaction and the plate was incubated at room temperature for 2 hours. The reaction was stopped after 2 hours with a 20 μL addition of Quanta Red Stop solution (1:20 dilution in distilled water). The above-described mixture with DMSO alone was used as a positive control whereas that with DMSO alone without ATX was taken as a negative control.
For each test compound, ten concentrations were measured covering a range of 6.1 nM to 120 μM to determine IC50 values. The top concentration was decreased to 1.2 μM when a test compound's IC50 value was evaluated in low nanomolar range. Fluorescence was determined in a BMG Labtech Pherastar plus plate reader ([…]). Data were analysed using Excel fit software. IC50 values were determined in duplicate.

Consider `O=C(N[C@H]1CC(=O)N(c2ccc(CN3CCCCC3)cc2)C1)c1cc(CCc2ccc(Cl)cc2)on1` [Compound F145, 5-[2-(4-chlorophenyl)ethyl]-N-[(3S)-5-oxo-1-[4-(1-piperidylmethyl)phenyl]pyrrolidin-3-yl]isoxazole-3-carboxamide], for which the IC50 (as a rule, the midpoint of a concentration-inhibition curve) was determined as 3 nM.
As for `CC1CCN(Cc2ccc(N3CC(C(=O)Nc4nnc(CCc5ccc(Cl)cc5)s4)CC3=O)cc2)CC1` (centres unmarked) [Compound F95, 1-[4-(4-methyl-piperidin-1-ylmethyl)-phenyl]-5-oxo-pyrrolidine-3-carboxylic acid {5-[2-(4-chloro-phenyl)-ethyl]-[1,3,4]thiadiazol-2-yl}-amide], the figure is 2 nM.
As to `CN(Cc1ccc(N2C[C@@H](C(=O)Nc3nnc(CCc4ccc(Cl)cc4)s3)CC2=O)cc1)C1CCOCC1` [Compound F90, (3S)-N-[5-[2-(4-chlorophenyl)ethyl]-1,3,4-thiadiazol-2-yl]-1-[4-[[methyl(tetrahydropyran-4-yl)amino]methyl]phenyl]-5-oxo-pyrrolidine-3-carboxamide], the IC50 is 1 nM.
Under `CCN(CC)Cc1ccc(N2CC(C(=O)Nc3nnc(CCc4ccc(Cl)cc4)s3)CC2=O)cc1` (centres unmarked) [Compound F98, N-[5-[2-(4-chlorophenyl)ethyl]-1,3,4-thiadiazol-2-yl]-1-[4-(diethylaminomethyl)phenyl]-5-oxo-pyrrolidine-3-carboxamide] stands 2 nM; under `CC1CCN(Cc2ccc(N3C[C@@H](NC(=O)c4nnc(CCc5ccc(Cl)cc5)s4)CC3=O)cc2)CC1` [Compound F137, 1-{4-[(S)-4-({5-[2-(4-chloro-phenyl)-ethyl]-[1,3,4]thiadiazole-2-carbonyl}-amino)-2-oxo-pyrrolidin-1-yl]-benzyl}-4-methyl-piperidine hydrochloride], 4 nM; under `O=C(NC1CC(=O)N(c2ccc(CN3CCCCC3)cc2)C1)c1nnc(CCc2ccccc2)o1` (centres unmarked) [Compound F194, N-[5-oxo-1-[4-(1-piperidylmethyl)phenyl]pyrrolidin-3-yl]-5-(2-phenylethyl)-1,3,4-oxadiazole-2-carboxamide], 649 nM.
With `O=C(Nc1nnc(CCC2CCCC2)s1)C1CC(=O)N(c2ccc(CN3CCCCC3)cc2)C1` (centres unmarked) [Compound F166, N-[5-(2-cyclopentylethyl)-1,3,4-thiadiazol-2-yl]-5-oxo-1-[4-(1-piperidylmethyl)phenyl] pyrrolidine-3-carboxamide], the IC50 is 16 nM.
`COc1ccc(CCc2nnc(NC(=O)C3CC(=O)N(c4ccc(CN5CCOCC5)cc4)C3)s2)cc1` (centres unmarked) [Compound F150, N-[5-[2-(4-methoxyphenyl)ethyl]-1,3,4-thiadiazol-2-yl]-1-[4-(morpholinomethyl)phenyl]-5-oxo-pyrrolidine-3-carboxamide]: the IC50 came to 8 nM.
Consider `O=C(Nc1nnc(CCc2ccc(Cl)cc2)s1)C1CC(=O)N(c2ccc(CN3CCNCC3)cc2)C1` (centres unmarked) [Compound F160, 5-Oxo-1-(4-piperazin-1-ylmethyl-phenyl)-pyrrolidine-3-carboxylic acid {5-[2-(4-chloro-phenyl)-ethyl]-[1,3,4]thiadiazol-2-yl}-amide; dihydrochloride], for which the IC50 is 24 nM.
As for `O=C(N[C@@H]1CC(=O)N(c2ccc(CN3CCCCC3)cc2)C1)c1cc(CCc2ccc(Cl)cc2)on1` [Compound F143, 5-[2-(4-chlorophenyl)ethyl]-N-[(3R)-5-oxo-1-[4-(1-piperidylmethyl)phenyl]pyrrolidin-3-yl]isoxazole-3-carboxamide], the figure is 2 nM; as for `COCCN(C)Cc1ccc(N2CC(C(=O)Nc3nnc(CCc4ccc(Cl)cc4)s3)CC2=O)cc1` (centres unmarked) [Compound F100, N-[5-[2-(4-chlorophenyl)ethyl]-1,3,4-thiadiazol-2-yl]-1-[4-[[2-methoxyethyl(methyl)amino]methyl]phenyl]-5-oxo-pyrrolidine-3-carboxamide], 2 nM.
Under `O=C(NC1CC(=O)N(c2ccc(CN3CCCCC3)cc2)C1)c1ncc(CCc2ccccc2)s1` (centres unmarked) [Compound F197, N-[5-oxo-1-[4-(1-piperidylmethyl)phenyl]pyrrolidin-3-yl]-5-(2-phenylethyl)thiazole-2-carboxamide] stands 465 nM.
Regarding `O=C(Nc1nnc(CCC2CCCCC2)s1)C1CC(=O)N(c2ccc(CN3CCCCC3)cc2)C1` (centres unmarked) [Compound F106, N-[5-(2-cyclohexylethyl)-1,3,4-thiadiazol-2-yl]-5-oxo-1-[4-(1-piperidylmethyl)phenyl] pyrrolidine-3-carboxamide], the half-maximal inhibitory concentration (IC50) was found to be 3 nM.
Under `O=C(NC1CC(=O)N(c2ccc(CN3CCCCC3)cc2)C1)c1cc(CCc2ccc(Cl)cc2)on1` (centres unmarked) [Compound F144, 5-[2-(4-chlorophenyl)ethyl]-N-[5-oxo-1-[4-(1-piperidylmethyl)phenyl]pyrrolidin-3-yl]isoxazole-3-carboxamide] stands 2 nM.
As to `O=C(Nc1nnc(CCc2ccc(Cl)cc2)s1)[C@H]1CC(=O)N(c2ccc(CN3CCC4(COC4)C3)cc2)C1` [Compound F212, (3S)-N-[5-[2-(4-chlorophenyl)ethyl]-1,3,4-thiadiazol-2-yl]-1-[4-(2-oxa-7-azaspiro[3.4]octan-7-ylmethyl)phenyl]-5-oxo-pyrrolidine-3-carboxamide], the IC50 was 1 nM.
With `O=C(NC1CC(=O)N(c2ccc(CN3CCOCC3)cc2)C1)c1nnc(CCc2ccc(Cl)cc2)s1` (centres unmarked) [Compound F128, 5-[2-(4-chlorophenyl)ethyl]-N-[1-[4-(morpholino-methyl)phenyl]-5-oxo-pyrrolidine-3-yl]-1,3,4-thiadiazole-2-carboxamide], the IC50 was found to be 1 nM.
As to `CS(=O)(=O)NCc1ccc(N2C[C@H](NC(=O)c3nnc(CCc4ccc(Cl)cc4)s3)CC2=O)cc1` [Compound F214, 5-[2-(4-chlorophenyl)ethyl]-N-[(3R)-1-[4-(methanesulfonamido-methyl)phenyl]-5-oxo-pyrrolidin-3-yl]-1,3,4-thiadiazole-2-carboxamide], the IC50 is 134 nM.
For `O=C(Nc1nnc(CCc2ccccc2)s1)C1CC(=O)N(c2ccc(CN3CCOCC3)cc2)C1` (centres unmarked) [Compound F176, 1-[4-(morpholinomethyl)phenyl]-5-oxo-N-[5-(2-phenylethyl)-1,3,4-thiadiazol-2-yl]pyrrolidine-3-carboxamide], the half-maximal inhibitory concentration (IC50) is 11 nM.
Turning to `O=C(N[C@H]1CCN(c2ccc(CN3CCOCC3)cc2)C1)c1nnc(CCc2ccc(Cl)cc2)s1` [Compound F167, 5-[2-(4-Chloro-phenyl)-ethyl]-[1,3,4]thiadiazole-2-carboxylic acid [(S)-1-(4-morpholin-4-ylmethyl-phenyl)-pyrrolidin-3-yl]-amide], the IC50 worked out at 16 nM.
As for `COCCN(C)Cc1ccc(N2C[C@@H](C(=O)Nc3nnc(CCc4ccc(Cl)cc4)s3)CC2=O)cc1` [Compound F94, (3S)-N-[5-[2-(4-chlorophenyl)ethyl]-1,3,4-thiadiazol-2-yl]-1-[4-[[2-methoxyethyl(methyl)amino]methyl]phenyl]-5-oxo-pyrrolidine-3-carboxamide], the figure is 1 nM; as for `CC1CCN(Cc2ccc(N3C[C@@H](C(=O)Nc4nnc(CCc5ccc(Cl)cc5)s4)CC3=O)cc2)CC1` [Compound F92, (S)-1-[4-(4-methyl-piperidin-1-ylmethyl)-phenyl]-5-oxo-pyrrolidine-3-carboxylic acid {5-[2-(4-chloro-phenyl)-ethyl]-[1,3,4]thiadiazol-2-yl}-amide], 1 nM; as for `O=C(Nc1nnc(SCc2ccc(F)cc2)s1)C1CC(=O)N(c2ccc(CN3CCOCC3)cc2)C1` (centres unmarked) [Compound F154, 1-(4-morpholin-4-ylmethyl-phenyl)-5-oxo-pyrrolidine-3-carboxylic acid [5-(4-fluoro-benzylsulfanyl)-[1,3,4]thiadiazol-2-yl]-amide], 3 nM.
Under `O=C(Nc1nnc(CCc2ccc(Cl)cc2)s1)C1CC(=O)N(c2ccc(CN3CC4CC4C3)cc2)C1` (centres unmarked) [Compound F110, 1-[4-(3-azabicyclo[3.1.0]hexan-3-ylmethyl)phenyl]-N-[5-[2-(4-chlorophenyl)ethyl]-1,3,4-thiadiazol-2-yl]-5-oxo-pyrrolidine-3-carboxamide] stands 3 nM; under `CC1CCN(Cc2ccc(N3C[C@H](NC(=O)c4nnc(CCc5ccc(Cl)cc5)s4)CC3=O)cc2)CC1` [Compound F138, 5-[2-(4-chlorophenyl)ethyl]-N-[(3R)-1-[4-[(4-methyl-1-piperidyl)methyl]phenyl]-5-oxo-pyrrolidin-3-yl]-1,3,4-thiadiazole-2-carboxamide], 5 nM.
As for `O=C(NC1CC(=O)N(c2ccc(CN3CCCCC3)cc2)C1)c1cc(CCc2ccccc2)no1` (centres unmarked) [Compound F198, N-[5-oxo-1-[4-(1-piperidylmethyl)phenyl]pyrrolidin-3-yl]-3-(2-phenylethyl)isoxazole-5-carboxamide], the figure is 989 nM; as for `O=C(Nc1cc(CCc2ccc(Cl)cc2)on1)C1CC(=O)N(c2ccc(CN3CCCCC3)cc2)C1` (stereo in doubt) [Compound F146, (3S)-N-[5-[2-(4-chlorophenyyl)ethyl]isoxazol-3-yl]-5-oxo-1-[4-(1-piperidylmethyl)phenyl] pyrrolidine-3-carboxamide], 1 nM.
